Experimental data reported in US20260335205A1, “ACTIVE AGENT MODULATING THE ACTIVITY OF AN ION CHANNEL FOR USE IN REGULATION OF SKIN PIGMENTATION” (priority 2022, published 2026).

How the values were obtained:
[1] = tested on: epidermal melanin content in human skin organ culture; test: Epidermal melanin content (Warthin-Starry / Fontana Masson histochemistry, quantitative histomorphometry) in ex vivo human skin organ culture; assay type: cell-based
Experimental: (§1) Samples of human abdominal, temporal, and occipital skin were obtained with written patient consent and under ethical approval from healthy adult human subjects during elective plastic surgery performed for cosmetic reasons. Full-thickness human skin samples were prepared as 4-6 mm punches, placed on filter paper, and cultured at the air-liquid interphase under serum-free conditions in William's E medium supplemented only with insulin, hydrocortisone and L-glutamine, as described previously.
For topical application of menthol (Sigma), a TRPM8 activator, a stock (5 M) was prepared in ethanol and dissolved at 37 °C at a final concentration of 1 mM in a 30% v/v solution of Polyethylene glycol 6000 (Sigma) in ethanol. For topical application of N-(3-Aminopropyl)-2-[(3-methylphenyl)methoxy]-N-(2-thienylmethyl)benzamide hydrochloride (AMTB) (Sigma), an TRPM8 inhibitor, a stock (50 mM) was prepared in water and dissolved at 37 °C at a final concentration of 10 μM in a 30% v/v solution of Polyethylene glycol 6000 (Sigma) in ethanol. Two μL droplets of this viscous solution containing menthol (1 mM), AMTB (10 μM), their combination, or ethanol as vehicle control were applied daily (up to 3 days) to the epidermis of skin biopsies.
Histochemical visualization of melanin in skin sections was performed using the Warthin-Starry Stain Kit (Abcam) or Fontana Masson histochemistry. For Warthin-Starry histochemistry, formalin-fixed human skin/HF frozen sections were rinsed in distilled water and incubated with AgNO3(0.5 % in acidulated water) for 30 seconds at 50 °C. Next, the sample was incubated with developer solution (0.42% AgNO3, 5% Gelatin, and 0.15% hydroquinone in acidulated water) and incubated for 2-5 minutes at 50 °C. The reaction was stopped by consecutive rinses in hot (60 °C) tap water for 2 minutes. Incubation with Na2S2O3 (5 % in distilled water) for 1 minute, followed by 3 minutes of consecutive washes in tap water can also be used to remove unbound AgNO3 and to tone the brown coloring of melanin black. Brief counterstain with hematoxylin was used to visualize nuclei. […]
Images were then obtained with a digital microscope (Keyence). Quantitative histomorphometric analysis was performed by assessing the relative intensity and the area of melanin stain in standardized reference areas with ImageJ (NIH; Bethesda, MD, USA). Briefly, for each parameter evaluated, multiple non-consecutive skin sections (at least 280 μm apart from each other) per punch biopsy were stained. Two skin punch biopsies were analyzed per experimental group unless indicated otherwise. The melanin content was then calculated based on the product of the fraction of area occupied by melanin and the mean shade of gray of the melanin, as described in detail elsewhere. […]

gp100 = test: gp100-specific immunoreactivity (immunohistochemistry, quantitative histomorphometry) in ex vivo human skin organ culture; assay type: cell-based; settings: after 3 days
Experimental: as §1
For topical application of menthol (Sigma), a TRPM8 activator, a stock (5 M) was prepared in ethanol and dissolved at 37 °C at a final concentration of 1 mM in a 30% v/v solution of Polyethylene glycol 6000 (Sigma) in ethanol. […]
After consecutive rinses in PBS, samples were incubated with rhodamine-conjugated secondary antibody (Jackson ImmunoResearch) diluted 1:200 in normal goat serum (2% in PBS) for 45 minutes at RT. […] Image acquisition and quantitative histomorphometric analysis were performed similar to as described for the Warthin-Starry technique, with a special emphasis on assessing the relative intensity and the area of gp100-specific immunoreactivity (IR) in the basal epidermal layer (i.e., the epidermal compartment where melanocytes reside).

tyrosinase = test: In situ tyrosinase activity (quantitative histomorphometry) in ex vivo human skin organ culture; assay type: cell-based; settings: after 3 days
Experimental: as §1, with “previously. […]” for “previously.”
For the in situ detection of tyrosinase activity (the enzyme that catalyzes the rate-limiting step of melanin synthesis), human skin cryosections were fixed in an acetone/methanol solution (1:1 ratio) and blocked with H2O2 (0.3 % in PBS) for 15 minutes. […] Tyrosinase activity was detected with the TSA™ Biotin System (Akoya Biosciences). […]
Image acquisition and quantitative histomorphometric analysis were performed similar to as described for the Warthin-Starry technique, with a special emphasis on assessing the relative intensity and the area of tyrosinase activity-specific immunoreactivity (IR) in the basal epidermal layer (i.e., the epidermal compartment where melanocytes reside).

melanocyte tyrosinase = settings: background, phenolic compounds (e.g., hydroquinone and derivatives); cited from earlier work
[2] = background; cited from earlier work
[3] = topical menthol 1 mM, after 3 days, vs vehicle, Warthin-Starry (FIG. 1)

Q: For `Cc1cccc(COc2ccccc2C(=O)N(CCCN)Cc2cccs2)c1.Cl` [AMTB, N-(3-Aminopropyl)-2-[(3-methylphenyl)methoxy]-N-(2-thienylmethyl)benzamide hydrochloride], which “prevention of menthol-induced increase of epidermal melanin content” value ([1]; topical AMTB 10 μM with menthol 1 mM, after 3 days, vs vehicle, Warthin-Starry (FIG. 4)) is on record?
A: The value was “prevented the effect of the TRPM8 agonist menthol (1 mM) to increase epidermal melanin content”.

Q: What about the “prevention of menthol-induced increase of gp100-specific IR in the basal epidermal layers” value (gp100; topical AMTB 10 μM with menthol 1 mM, vs vehicle (FIG. 5)) of the same molecule?
A: The value was “prevented the effect of the TRPM8 agonist menthol (1 mM) to increase gp100-specific IR in the basal epidermal layers”.

Q: What about the “prevention of menthol-induced increase of tyrosinase activity in the basal epidermal layers” value (tyrosinase; topical AMTB 10 μM with menthol 1 mM, vs vehicle (FIG. 6)) of the same molecule?
A: Its value is “prevented the effect of the TRPM8 agonist menthol (1 mM) to increase tyrosinase activity in the basal epidermal layers”.

Q: What does the source list for `Oc1ccc(O)cc1` [hydroquinone]?
A: inhibition of melanocyte tyrosinase (melanocyte tyrosinase): shown to inhibit melanocyte tyrosinase; DNA damage [2]: shown to cause DNA damage; chronic adverse effects [2]: contact dermatitis, sclera and nail hyperpigmentation, impaired wound healing

Q: For `CC1CCC(C(C)C)C(O)C1` (centres unmarked) [menthol], which epidermal melanin content [1, 3] is on record?
A: Its epidermal melanin content is “markedly increases epidermal melanin content”.

Q: And the “melanin content in basal and suprabasal layers” value [1, 3]?
A: The value was “increased the melanin content not only in the basal layer (i.e., the epidermal compartment where melanocytes reside) but also in the suprabasal layers”.

Q: And the “epidermal melanin content verified by two independent histochemical technologies” value ([1]; topical, human ex vivo skin organ cultures)?
A: The value was “upregulated epidermal melanin content”.

Q: What about the “intensity level of gp100-specific IR in the basal epidermal layers” value (gp100; topical menthol 1 mM, vs vehicle (FIG. 2)) of the same molecule?
A: The value was “markedly increases the intensity level of gp100-specific IR in the basal epidermal layers”.

Q: What about the “intensity level of tyrosinase activity in the basal epidermal layers” value (tyrosinase; topical menthol 1 mM, vs vehicle (FIG. 3)) of the same molecule?
A: The value was “markedly increases the intensity level of tyrosinase activity in the basal epidermal layers”.
